Test results: patent US7238693B2, “Aryl carbamate derivatives, preparation and use thereof” (Cerep, priority 2001, dated 2007)
Like-named read-outs stand apart in the source and are kept apart here.

Tests used:
Assay type in all cases: binding
human isoform h5-HT4e = target: T1, human isoform h5-HT4e (Homo sapiens, UniProt Q13639); assay: displacement of radioligand [3H]-GR113808 in rat glial cells expressing h5-HT4e
T1 construct: expressed in transfected cells; membrane preparation
Method: The compounds of the invention were evaluated by measuring their affinity constant Ki determined by displacing a radioligand [^3H]-GR113808 in rat glial cells stably expressing the human isoform h5-HT4e.
Confluent glial cells were washed twice in PBS and centrifuged at 300 g for 5 min. The pellet was used immediately and the cells were suspended in 10 volumes of HEPES (50 mM, pH 7.4, 4° C.) then homogenized with a teflon homogenizer and centrifuged at 40,000 g for 20 min. The pellet was resuspended in 15 volumes of HEPES. Displacement experiments were carried out in 500 μl of buffer (50 mM HEPES) containing 20 μl of radioligand [^3H]-GR113808 at a concentration of 0.2 nM for isoform h5-HT4e or at a concentration equal to half of the Kd of the radioligand for the other isoforms expressed in COS cells, 20 μl of competitor ligand at seven different concentrations and 50 μl of membrane preparation (100–200 μg of protein determined by the Bradford method). Binding was carried out at 25° C. for 30 min and the reaction was stopped by rapid vacuum filtration (Brandel Harvester) on Whatman GF/B filters preincubated in 0.1% PEI solution to minimize nonspecific binding.
Membrane-bound radioactivity is retained on the filter, which was cut and washed with cold buffer (50 mM Tris-HCl, pH 7.4) and incubated overnight in 4 ml of scintillation liquid. Radioactivity was measured in a liquid scintillation counter (Beckman LS 6500C). Binding data were obtained by computer assisted linear regression (Graph Prism Program, Graph Pad Software. Inc., San Diego, Calif.)

5-HT1A receptor = target: T2, 5-HT1A receptor (Homo sapiens, UniProt P08908); assay: selectivity, 5-HT1A receptor; settings: up to a concentration of 1 μM
T2 sequence (P08908 1-422): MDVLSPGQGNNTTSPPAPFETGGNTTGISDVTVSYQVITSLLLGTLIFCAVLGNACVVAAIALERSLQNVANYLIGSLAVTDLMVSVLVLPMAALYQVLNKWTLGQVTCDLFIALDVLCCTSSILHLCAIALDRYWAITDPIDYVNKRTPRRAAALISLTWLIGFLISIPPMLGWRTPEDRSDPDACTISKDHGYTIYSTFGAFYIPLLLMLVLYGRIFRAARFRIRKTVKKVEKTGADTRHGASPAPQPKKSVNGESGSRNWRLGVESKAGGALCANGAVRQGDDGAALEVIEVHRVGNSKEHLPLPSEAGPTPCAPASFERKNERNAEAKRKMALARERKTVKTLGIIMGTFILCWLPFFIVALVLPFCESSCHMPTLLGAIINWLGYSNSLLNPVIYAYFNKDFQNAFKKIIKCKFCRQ

5-HT1B receptor = 5-HT1B receptor (Homo sapiens, UniProt P28222); assay: selectivity, 5-HT1B receptor; settings: up to a concentration of 1 μM
Chain of 5-HT1B receptor (P28222 whole entry): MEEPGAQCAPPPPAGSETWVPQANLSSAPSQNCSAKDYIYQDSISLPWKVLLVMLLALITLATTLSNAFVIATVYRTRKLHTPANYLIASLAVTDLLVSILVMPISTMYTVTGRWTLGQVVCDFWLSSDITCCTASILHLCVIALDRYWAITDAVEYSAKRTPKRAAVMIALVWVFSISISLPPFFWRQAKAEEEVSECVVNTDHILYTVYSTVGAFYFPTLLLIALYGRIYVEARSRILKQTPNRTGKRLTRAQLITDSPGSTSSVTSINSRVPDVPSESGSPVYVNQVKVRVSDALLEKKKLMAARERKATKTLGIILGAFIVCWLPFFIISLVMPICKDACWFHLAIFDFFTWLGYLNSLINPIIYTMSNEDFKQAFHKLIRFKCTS

5-HT2A receptor = 5-HT2A receptor (Homo sapiens, UniProt P28223); assay: selectivity, 5-HT2A receptor; settings: up to a concentration of 1 μM
Chain of 5-HT2A receptor (P28223 whole entry): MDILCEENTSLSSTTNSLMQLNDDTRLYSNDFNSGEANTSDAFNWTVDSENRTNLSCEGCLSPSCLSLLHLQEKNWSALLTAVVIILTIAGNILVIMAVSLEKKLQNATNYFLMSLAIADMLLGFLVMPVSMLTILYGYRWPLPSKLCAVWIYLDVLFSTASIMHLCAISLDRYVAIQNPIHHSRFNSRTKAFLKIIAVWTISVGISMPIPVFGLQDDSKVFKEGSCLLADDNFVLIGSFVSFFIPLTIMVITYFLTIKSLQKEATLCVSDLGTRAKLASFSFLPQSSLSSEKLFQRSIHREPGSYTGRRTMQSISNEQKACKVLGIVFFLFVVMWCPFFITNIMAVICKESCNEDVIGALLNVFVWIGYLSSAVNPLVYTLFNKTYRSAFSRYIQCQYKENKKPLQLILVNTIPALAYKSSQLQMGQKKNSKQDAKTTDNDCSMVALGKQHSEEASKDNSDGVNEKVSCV

5-HT2C receptor = target: T3, 5-HT2C receptor (Homo sapiens, UniProt P28335); assay: selectivity, 5-HT2C receptor; settings: up to a concentration of 1 μM
T3 sequence (P28335 33-458): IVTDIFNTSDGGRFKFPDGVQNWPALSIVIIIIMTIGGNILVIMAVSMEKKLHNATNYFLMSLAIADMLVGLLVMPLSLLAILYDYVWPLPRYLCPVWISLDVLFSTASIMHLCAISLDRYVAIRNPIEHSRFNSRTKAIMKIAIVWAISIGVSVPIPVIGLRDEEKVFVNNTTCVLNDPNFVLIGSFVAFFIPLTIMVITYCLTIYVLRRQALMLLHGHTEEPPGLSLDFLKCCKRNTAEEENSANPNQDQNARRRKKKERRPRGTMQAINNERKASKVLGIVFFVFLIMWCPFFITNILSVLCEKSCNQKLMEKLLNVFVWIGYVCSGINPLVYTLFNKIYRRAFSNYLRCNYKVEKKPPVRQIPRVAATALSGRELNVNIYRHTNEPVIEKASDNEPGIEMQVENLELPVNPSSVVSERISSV

5-HT3 receptor = target: T4, 5-HT3 receptor (Homo sapiens, UniProt P46098); assay: selectivity, 5-HT3 receptor; settings: up to a concentration of 1 μM
T4 sequence (P46098 24-478): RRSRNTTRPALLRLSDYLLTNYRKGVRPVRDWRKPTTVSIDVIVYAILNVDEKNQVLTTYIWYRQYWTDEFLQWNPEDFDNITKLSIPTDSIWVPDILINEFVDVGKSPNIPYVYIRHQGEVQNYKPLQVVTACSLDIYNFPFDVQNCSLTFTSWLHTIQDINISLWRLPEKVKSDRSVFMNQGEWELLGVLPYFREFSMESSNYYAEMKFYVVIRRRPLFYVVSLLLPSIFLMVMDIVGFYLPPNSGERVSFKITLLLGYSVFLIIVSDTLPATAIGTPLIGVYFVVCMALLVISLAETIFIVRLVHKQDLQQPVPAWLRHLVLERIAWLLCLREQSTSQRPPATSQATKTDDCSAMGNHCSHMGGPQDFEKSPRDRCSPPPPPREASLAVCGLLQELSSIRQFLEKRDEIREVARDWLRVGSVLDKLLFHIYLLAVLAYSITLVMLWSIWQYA

5-HT5A receptor = 5-HT5A receptor (Homo sapiens, UniProt P47898); assay: selectivity, 5-HT5A receptor; settings: up to a concentration of 1 μM
Chain of 5-HT5A receptor (P47898 whole entry): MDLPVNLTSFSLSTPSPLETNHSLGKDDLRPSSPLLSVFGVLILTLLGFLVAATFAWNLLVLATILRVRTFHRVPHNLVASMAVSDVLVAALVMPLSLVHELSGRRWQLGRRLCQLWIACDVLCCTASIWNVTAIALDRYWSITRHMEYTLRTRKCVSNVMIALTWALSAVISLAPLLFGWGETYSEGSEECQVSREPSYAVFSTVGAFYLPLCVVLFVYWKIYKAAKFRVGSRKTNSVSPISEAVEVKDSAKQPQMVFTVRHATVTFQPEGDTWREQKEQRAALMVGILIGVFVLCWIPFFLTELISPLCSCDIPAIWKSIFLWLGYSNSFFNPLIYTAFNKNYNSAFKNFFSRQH

5-HT6 receptor = 5-HT6 receptor (Homo sapiens, UniProt P50406); assay: selectivity, 5-HT6 receptor; settings: up to a concentration of 1 μM
Chain of 5-HT6 receptor (P50406 whole entry): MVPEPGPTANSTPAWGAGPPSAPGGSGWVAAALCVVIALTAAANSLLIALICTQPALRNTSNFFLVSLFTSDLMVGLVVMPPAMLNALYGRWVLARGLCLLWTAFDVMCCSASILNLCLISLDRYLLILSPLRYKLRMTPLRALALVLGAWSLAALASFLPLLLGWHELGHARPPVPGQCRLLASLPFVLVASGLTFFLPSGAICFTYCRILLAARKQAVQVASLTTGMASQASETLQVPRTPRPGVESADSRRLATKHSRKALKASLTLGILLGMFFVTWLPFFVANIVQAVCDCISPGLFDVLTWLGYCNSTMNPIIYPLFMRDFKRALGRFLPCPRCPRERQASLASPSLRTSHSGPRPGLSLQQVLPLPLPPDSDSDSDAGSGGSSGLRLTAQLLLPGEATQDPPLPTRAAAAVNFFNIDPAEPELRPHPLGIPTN

5-HT7 receptor = 5-HT7 receptor (Homo sapiens, UniProt P34969); assay: selectivity, 5-HT7 receptor; settings: up to a concentration of 1 μM
Chain of 5-HT7 receptor (P34969 whole entry): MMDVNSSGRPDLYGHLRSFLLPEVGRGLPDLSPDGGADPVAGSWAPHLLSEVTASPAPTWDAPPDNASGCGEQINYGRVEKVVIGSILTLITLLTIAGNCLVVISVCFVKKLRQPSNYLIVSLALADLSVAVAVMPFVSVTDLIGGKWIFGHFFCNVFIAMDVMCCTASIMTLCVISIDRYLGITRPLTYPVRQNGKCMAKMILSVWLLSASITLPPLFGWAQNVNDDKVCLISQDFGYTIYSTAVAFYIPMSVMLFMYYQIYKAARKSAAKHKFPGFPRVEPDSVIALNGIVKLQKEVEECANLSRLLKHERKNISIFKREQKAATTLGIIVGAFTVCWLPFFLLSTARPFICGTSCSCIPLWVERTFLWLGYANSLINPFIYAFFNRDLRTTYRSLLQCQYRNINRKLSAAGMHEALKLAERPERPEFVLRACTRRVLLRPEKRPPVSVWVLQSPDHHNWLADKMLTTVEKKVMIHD

[1] = [3H]-GR113808 0.2 nM, membranes of rat glial cells expressing h5-HT4e, 25° C., 30 min, read-out: Ki

T1 sequence (Q13639 1-378 isoform Q13639-5): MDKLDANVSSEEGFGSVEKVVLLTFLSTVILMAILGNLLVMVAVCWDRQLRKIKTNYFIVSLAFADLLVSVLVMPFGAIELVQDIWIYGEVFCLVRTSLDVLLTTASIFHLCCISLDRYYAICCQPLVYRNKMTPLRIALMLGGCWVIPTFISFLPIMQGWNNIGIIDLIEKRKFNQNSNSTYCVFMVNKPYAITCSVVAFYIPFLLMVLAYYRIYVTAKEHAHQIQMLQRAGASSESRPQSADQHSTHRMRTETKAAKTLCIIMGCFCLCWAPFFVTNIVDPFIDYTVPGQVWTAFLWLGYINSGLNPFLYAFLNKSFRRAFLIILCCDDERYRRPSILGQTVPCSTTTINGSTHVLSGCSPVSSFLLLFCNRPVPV

| Ki (human isoform h5-HT4e; [1]) [nM] | SMILES | further results |
| --- | --- | --- |
| 10.6 | COc1ccccc1NC(=O)OCCN1CCN(c2cccnn2)CC1 [Compound 64, 2-[4-(3-pyridazinyl)piperazino]ethyl-N-(2-methoxyphenyl)carbamate] |  |
| 10.4 | COc1ccccc1NC(=O)OCCN1CCN(c2ncccn2)CC1 [Compound 65, 2-[4-(2-pyrimidinyl)piperazino]ethyl-N-(2-methoxyphenyl)carbamate] |  |
| 12.7 | COc1cccc(N2CCN(CCOC(=O)Nc3ccccc3OC)CC2)c1 [Compound 51, 2-[4-(3-methoxyphenyl)piperazino]ethyl-N-(2-methoxyphenyl)carbamate] |  |
| 9.3 | COc1ccccc1NC(=O)OCCN1CCN(c2ccccn2)CC1 [Compound 62, 2-[4-(2-pyridinyl)piperazino]ethyl-N-(2-methoxyphenyl)carbamate] |  |
| 10 | COc1ccccc1NC(=O)OCCCN1CCN(c2ccncc2)CC1 [Compound 83, 3-[4-(4-pyridinyl)piperazino]propyl-N-(2-methoxyphenyl)carbamate] |  |

Further lines, the compound ahead of its results:

| SMILES | Ki (human isoform h5-HT4e; [1]) [nM] | further results |
| --- | --- | --- |
| CCOc1ccccc1NC(=O)OCCCN1CCN(c2ccccn2)CC1 [Compound 40, 3-[4-(2-pyridinyl)piperazino]propyl-N-(2-ethoxyphenyl)carbamate] | 9.9 |  |
| CCOc1ccccc1NC(=O)OCCCN1CCN(c2cccnn2)CC1 [Compound 42, 3-[4-(3-pyridazinyl)piperazino]propyl-N-(2-ethoxyphenyl)carbamate] | 3.6 |  |
| CCOc1ccccc1NC(=O)OCCCN1CCN(c2ccc(C)nn2)CC1 [Compound 48, 3-[4-(6-methyl-3-pyridazinyl)piperazino]propyl-N-(2-ethoxyphenyl)carbamate] | 3.9 |  |
| CCOc1ccccc1NC(=O)OCCN1CCN(c2cccc(C)c2)CC1 [Compound 21, 2-[4-(3-methylphenyl)piperazino]ethyl-N-(2-ethoxyphenyl)carbamate] | 20.2 |  |
| COc1ccccc1NC(=O)OCCN1CCN(c2ccncc2)CC1 [Compound 63, 2-[4-(4-pyridinyl)piperazino]ethyl-N-(2-methoxyphenyl)carbamate] |  | Ki (human isoform h5-HT4e; as stated in the description, read-out: Ki for the 5-HT4 receptor): 5 nM; activity for the 5-HT1A receptor (5-HT1A receptor): no activity; activity for the 5-HT1B receptor (5-HT1B receptor): no activity; activity for the 5-HT2A receptor (5-HT2A receptor): no activity; activity for the 5-HT2C receptor (5-HT2C receptor): no activity; activity for the 5-HT3 receptor (5-HT3 receptor): no activity; activity for the 5-HT5A receptor (5-HT5A receptor): no activity; activity for the 5-HT6 receptor (5-HT6 receptor): no activity; activity for the 5-HT7 receptor (5-HT7 receptor): no activity |
| CCOc1ccccc1NC(=O)OCCCN1CCN(c2ncccn2)CC1 [Compound 44, 3-[4-(2-pyrimidinyl)piperazino]propyl-N-(2-ethoxyphenyl)carbamate] | 11.8 |  |
| CCOc1ccccc1NC(=O)OCCN1CCN(c2ccccn2)CC1 [Compound 24, 2-[4-(2-pyridinyl)piperazino]ethyl-N-(2-ethoxyphenyl)carbamate] | 4.5 |  |
| CCOc1ccccc1NC(=O)OCCCN1CCN(c2ccncn2)CC1 [Compound 43, 3-[4-(4-pyrimidinyl)piperazino]propyl-N-(2-ethoxyphenyl)carbamate] | 10.4 |  |
